Where a name gives a salt, the structure may show the parent alone.
Columns and labels:
[1] = biological target: human aldose reductase (hALR2) (Homo sapiens, UniProt P15121); experiment: inhibition of human aldose reductase (hALR2) activity, methods similar to Butera et al.; format: biochemical; conditions: concentration to inhibit activity by 50%, read-out: hAR-#1 (aldose)
Procedure: Representative compounds of the invention are tested for their potency, selectivity and efficacy as inhibitors of human aldose reductase. […] Using this assay, the concentrations required to inhibit human aldose reductase (hALR2) activity by 50% (IC50) are determined.

[2] = system: urinary excretion of uric acid; experiment: Uricosuric activity in the chimpanzee: amount of uric acid excreted in the urine; format: in vivo; conditions: single oral 4 mg/kg dose; for Amount of uric acid excreted in the urine in 24 hour intervals, mean: mean of chimps
Procedure: (§1) Compound of Example 14 was administered to chimpanzees orally as a single 4 mg/kg does. While four animals were dosed, complete data was not collected for one animal (Chimp #4), as an adverse reaction to anesthesia required early termination of this animal from the study.

blood uric acid levels = experiment: Uricosuric activity in the chimpanzee: concentrations of uric acid in serum; format: in vivo; conditions: single oral 4 mg/kg dose; for Concentrations of uric acid in serum, mean: mean of chimps
Procedure: as §1

Cc1nc(C)c(Cc2nc3c(F)c(F)cc(F)c3s2)cc1CC(=O)O.Cl [Example 4, 2,6-Dimethyl-5-(4,5,7-trifluoro-benzothiazole-2-ylmethyl)-pyridin-3-yl-acetic acid hydrochloride]
melting point: 211 °C (dec.)
IC50 [1]: 4 nM

CCc1ncc(CC(=O)O)cc1Cc1nc2c(F)c(F)cc(F)c2s1 (as salt: hydrochloride) [Example 14, 6-ethyl-5-(4,5,7-trifluoro-benzothiazol-2-ylmethyl)-pyridin-3-yl-acetic acid hydrochloride]
melting point: 220 °C (dec.)

Cc1sc(C)c(Cc2nc3c(F)c(F)cc(F)c3s2)c1CC(=O)O [Example 18, [2,5-Dimethyl-4-(4,5,7-trifluoro-benzothiazol-2-ylmethyl)-thiophen-3-yl]-acetic acid]
melting point: 170 to 171 °C
IC50 [1]: 36 nM

O=C(O)Cc1cc(Cc2nc3c(F)c(F)cc(F)c3s2)cnc1-c1ccccc1 (as salt: hydrochloride) [Example 13, 2-phenyl-5-(4,5,7-trifluoro-benzothiazol-2-ylmethyl)-pyridin-3-yl-acetic acid hydrochloride]
melting point: 110 °C (dec.)

O=C(O)Cc1cc(Cc2nc3cc(C(F)(F)F)ccc3s2)cs1 (as salt: hydrochloride)
melting point: 131 to 132 °C

O=C(O)Cc1cc(Cc2nc3c(F)c(F)cc(F)c3s2)cnc1Cc1ccccc1 (as salt: hydrochloride) [Example 12, 2-benzyl-5-(4,5,7-trifluoro-benzothiazol-2-ylmethyl)-pyridin-3-yl-acetic acid hydrochloride]
melting point: 175 °C (dec.)

O=C(O)Cc1cnc(-c2ccccc2)c(Cc2nc3c(F)c(F)cc(F)c3s2)c1 (as salt: hydrochloride) [Example 15, 6-Phenyl-5-(4,5,7-trifluoro-benzothiazol-2-ylmethyl)-pyridin-3-yl-acetic acid hydrochloride]
melting point: 205 to 207 °C (dec.)

O=C(O)Cc1ccc(Cc2nc3c(F)c(F)cc(F)c3s2)s1 [Example 19, [5-(4,5,7-trifluoro-benzothiazol-2-ylmethyl)-thiophen-2-yl]-acetic acid]
melting point: 132 to 133 °C
IC50 [1]: 27 nM

Cc1nc(C)c(Cc2nc3c(F)c(F)cc(F)c3s2)c(C)c1CC(=O)O (as salt: hydrochloride) [Example 9, 2,4,6-trimethyl-5-(4,5,7-trifluoro-benzothiazol-2-ylmethyl)-pyridin-3-yl-acetic acid hydrochloride]
melting point: 216 to 217 °C

CCc1c(CC(=O)O)c(C)nc(C)c1Cc1nc2c(F)c(F)cc(F)c2s1 (as salt: hydrochloride) [Example 10, 2,6-dimethyl-4-ethyl-5-(4,5,7-trifluoro-benzothiazol-2-ylmethyl)-pyridin-3-yl-acetic acid hydrochloride]
melting point: 193 to 195 °C

O=C(O)Cc1cnc(Cc2ccccc2)c(Cc2nc3c(F)c(F)cc(F)c3s2)c1 (as salt: hydrochloride) [Example 16, 6-Benzyl-5-(4,5,7-trifluoro-benzothiazol-2-ylmethyl)-pyridin-3-yl-acetic acid hydrochloride]
melting point: 185 °C (dec.)

O=C(O)Cc1cncc(Cc2nc3c(F)c(F)cc(F)c3s2)c1 (as salt: hydrochloride) [Example 8, 5-(4,5,7-trifluoro-benzothiazol-2-ylmethyl)-pyridin-3-yl-acetic acid hydrochloride]
melting point: 196 to 197 °C

CCc1ncc(CC(=O)O)cc1Cc1nc2c(F)c(F)cc(F)c2s1 [Example 14, 6-ethyl-5-(4,5,7-trifluoro-benzothiazol-2-ylmethyl)-pyridin-3-yl-acetic acid hydrochloride]
Amount of uric acid excreted in the urine in 24 hour intervals ([2]; Chimp #1, 0-24 hours): 1020 mg
Amount of uric acid excreted in the urine in 24 hour intervals ([2]; Chimp #1, 24-48 hours): 686 mg
Amount of uric acid excreted in the urine in 24 hour intervals ([2]; Chimp #1, 48-72 hours): 657 mg
Amount of uric acid excreted in the urine in 24 hour intervals ([2]; Chimp #1, Baseline): 321 mg
Amount of uric acid excreted in the urine in 24 hour intervals ([2]; Chimp #2, 0-24 hours): 758 mg
Amount of uric acid excreted in the urine in 24 hour intervals ([2]; Chimp #2, 24-48 hours): 399 mg
Amount of uric acid excreted in the urine in 24 hour intervals ([2]; Chimp #2, 48-72 hours): 290 mg
Amount of uric acid excreted in the urine in 24 hour intervals ([2]; Chimp #2, Baseline): 474 mg
Amount of uric acid excreted in the urine in 24 hour intervals ([2]; Chimp #3, 0-24 hours): 843 mg
Amount of uric acid excreted in the urine in 24 hour intervals ([2]; Chimp #3, 24-48 hours): 189 mg
Amount of uric acid excreted in the urine in 24 hour intervals ([2]; Chimp #3, 48-72 hours): 216 mg
Amount of uric acid excreted in the urine in 24 hour intervals ([2]; Chimp #3, Baseline): 347 mg
Amount of uric acid excreted in the urine in 24 hour intervals ([2]; Chimp #4, Baseline): 450 mg
urinary excretion of uric acid ([2]; chimpanzee, over the first 24 hours following dosage): concomitant increase in the urinary excretion of uric acid
Amount of uric acid excreted in the urine in 24 hour intervals, mean ([2]; 0-24 hours): 874 mg
Amount of uric acid excreted in the urine in 24 hour intervals, mean ([2]; 24-48 hours): 425 mg
Amount of uric acid excreted in the urine in 24 hour intervals, mean ([2]; 48-72 hours): 388 mg
Amount of uric acid excreted in the urine in 24 hour intervals, mean ([2]; Baseline): 398 mg
Concentrations of uric acid in serum (blood uric acid levels; Chimp #1, 0 hours): 3.0 mg/dL
Concentrations of uric acid in serum (blood uric acid levels; Chimp #1, 0.25 hours): 3.0 mg/dL
Concentrations of uric acid in serum (blood uric acid levels; Chimp #1, 0.50 hours): 3.0 mg/dL
Concentrations of uric acid in serum (blood uric acid levels; Chimp #1, 1.0 hours): 3.0 mg/dL
Concentrations of uric acid in serum (blood uric acid levels; Chimp #1, 2.0 hours): 2.8 mg/dL
Concentrations of uric acid in serum (blood uric acid levels; Chimp #1, 6.0 hours): 2.2 mg/dL
Concentrations of uric acid in serum (blood uric acid levels; Chimp #1, 12 hours): 1.9 mg/dL
Concentrations of uric acid in serum (blood uric acid levels; Chimp #1, 24 hours): 2.3 mg/dL
Concentrations of uric acid in serum (blood uric acid levels; Chimp #1, 48 hours): 3.4 mg/dL
Concentrations of uric acid in serum (blood uric acid levels; Chimp #1, 72 hours): 3.2 mg/dL
Concentrations of uric acid in serum (blood uric acid levels; Chimp #1, Baseline): 2.9 mg/dL
Concentrations of uric acid in serum (blood uric acid levels; Chimp #2, 0 hours): 1.7 mg/dL
Concentrations of uric acid in serum (blood uric acid levels; Chimp #2, 0.25 hours): 1.8 mg/dL
Concentrations of uric acid in serum (blood uric acid levels; Chimp #2, 0.50 hours): 1.8 mg/dL
Concentrations of uric acid in serum (blood uric acid levels; Chimp #2, 1.0 hours): 1.8 mg/dL
Concentrations of uric acid in serum (blood uric acid levels; Chimp #2, 2.0 hours): 1.7 mg/dL
Concentrations of uric acid in serum (blood uric acid levels; Chimp #2, 6.0 hours): 1.2 mg/dL
Concentrations of uric acid in serum (blood uric acid levels; Chimp #2, 12 hours): 0.9 mg/dL
Concentrations of uric acid in serum (blood uric acid levels; Chimp #2, 24 hours): 1.4 mg/dL
Concentrations of uric acid in serum (blood uric acid levels; Chimp #2, 48 hours): 1.2 mg/dL
Concentrations of uric acid in serum (blood uric acid levels; Chimp #2, 72 hours): 1.4 mg/dL
Concentrations of uric acid in serum (blood uric acid levels; Chimp #2, Baseline): 1.9 mg/dL
Concentrations of uric acid in serum (blood uric acid levels; Chimp #3, 0 hours): 2.2 mg/dL
Concentrations of uric acid in serum (blood uric acid levels; Chimp #3, 0.25 hours): 2.3 mg/dL
Concentrations of uric acid in serum (blood uric acid levels; Chimp #3, 0.50 hours): 2.3 mg/dL
Concentrations of uric acid in serum (blood uric acid levels; Chimp #3, 1.0 hours): 2.1 mg/dL
Concentrations of uric acid in serum (blood uric acid levels; Chimp #3, 2.0 hours): 1.9 mg/dL
Concentrations of uric acid in serum (blood uric acid levels; Chimp #3, 6.0 hours): 1.6 mg/dL
Concentrations of uric acid in serum (blood uric acid levels; Chimp #3, 12 hours): 1.6 mg/dL
Concentrations of uric acid in serum (blood uric acid levels; Chimp #3, 24 hours): 1.9 mg/dL
Concentrations of uric acid in serum (blood uric acid levels; Chimp #3, 48 hours): 1.9 mg/dL
Concentrations of uric acid in serum (blood uric acid levels; Chimp #3, 72 hours): 2.4 mg/dL
Concentrations of uric acid in serum (blood uric acid levels; Chimp #3, Baseline): 2.3 mg/dL
Concentrations of uric acid in serum (blood uric acid levels; Chimp #4, 0 hours): 2.5 mg/dL
Concentrations of uric acid in serum (blood uric acid levels; Chimp #4, 0.25 hours): 2.6 mg/dL
Concentrations of uric acid in serum (blood uric acid levels; Chimp #4, 0.50 hours): 2.5 mg/dL
Concentrations of uric acid in serum (blood uric acid levels; Chimp #4, 1.0 hours): 2.7 mg/dL
Concentrations of uric acid in serum (blood uric acid levels; Chimp #4, 2.0 hours): 2.3 mg/dL
Concentrations of uric acid in serum (blood uric acid levels; Chimp #4, 6.0 hours): 1.8 mg/dL
Concentrations of uric acid in serum (blood uric acid levels; Chimp #4, 12 hours): 1.7 mg/dL
Concentrations of uric acid in serum (blood uric acid levels; Chimp #4, Baseline): 2.5 mg/dL
maximal lowering of blood uric acid levels (blood uric acid levels; chimpanzee, average of three animals, at approximately 12 hours following dosage): about 44%
uricosuric effect (blood uric acid levels; chimpanzee, data from three animals): clear uricosuric effect
Concentrations of uric acid in serum, mean (blood uric acid levels; 0 hours): 2.4 mg/dL
Concentrations of uric acid in serum, mean (blood uric acid levels; 0.25 hours): 2.4 mg/dL
Concentrations of uric acid in serum, mean (blood uric acid levels; 0.50 hours): 2.4 mg/dL
Concentrations of uric acid in serum, mean (blood uric acid levels; 1.0 hours): 2.4 mg/dL
Concentrations of uric acid in serum, mean (blood uric acid levels; 2.0 hours): 2.2 mg/dL
Concentrations of uric acid in serum, mean (blood uric acid levels; 6.0 hours): 1.7 mg/dL
Concentrations of uric acid in serum, mean (blood uric acid levels; 12 hours): 1.5 mg/dL
Concentrations of uric acid in serum, mean (blood uric acid levels; 24 hours): 1.9 mg/dL
Concentrations of uric acid in serum, mean (blood uric acid levels; 48 hours): 2.2 mg/dL
Concentrations of uric acid in serum, mean (blood uric acid levels; 72 hours): 2.3 mg/dL
Concentrations of uric acid in serum, mean (blood uric acid levels; Baseline): 2.4 mg/dL
IC50 [1]: 7 nM

— patent US7361671B2, “Substituted heteroarylalkanoic acids” (The Institute for Pharmaceutical Discovery, Inc., priority 2001, dated 2008)
